Source: article PMC11421147 (Journal of Enzyme Inhibition and Medicinal Chemistry, 2024)

Columns and labels:
α-glucosidase = α-glucosidase (Saccharomyces cerevisiae, UniProt P53341); test: α-Glucosidase inhibitory activity; format: biochemical
human sPLA2 hG-IIA = molecular target: T1, human sPLA2 hG-IIA (Homo sapiens, UniProt P14555); test: Inhibition of sPLA2 activity; format: biochemical; conditions: IC50 ± standard deviation; for IC50: IC50 sPLA2(IIA)
T1 sequence (P14555 21-144): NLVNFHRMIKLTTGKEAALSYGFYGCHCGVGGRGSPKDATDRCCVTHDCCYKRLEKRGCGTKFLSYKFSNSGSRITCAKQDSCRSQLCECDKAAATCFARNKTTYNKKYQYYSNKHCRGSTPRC

[1] = test system: human blood paraoxonase-1 (PON1); conditions: cited from earlier work

Sequence of α-glucosidase (P53341 whole entry): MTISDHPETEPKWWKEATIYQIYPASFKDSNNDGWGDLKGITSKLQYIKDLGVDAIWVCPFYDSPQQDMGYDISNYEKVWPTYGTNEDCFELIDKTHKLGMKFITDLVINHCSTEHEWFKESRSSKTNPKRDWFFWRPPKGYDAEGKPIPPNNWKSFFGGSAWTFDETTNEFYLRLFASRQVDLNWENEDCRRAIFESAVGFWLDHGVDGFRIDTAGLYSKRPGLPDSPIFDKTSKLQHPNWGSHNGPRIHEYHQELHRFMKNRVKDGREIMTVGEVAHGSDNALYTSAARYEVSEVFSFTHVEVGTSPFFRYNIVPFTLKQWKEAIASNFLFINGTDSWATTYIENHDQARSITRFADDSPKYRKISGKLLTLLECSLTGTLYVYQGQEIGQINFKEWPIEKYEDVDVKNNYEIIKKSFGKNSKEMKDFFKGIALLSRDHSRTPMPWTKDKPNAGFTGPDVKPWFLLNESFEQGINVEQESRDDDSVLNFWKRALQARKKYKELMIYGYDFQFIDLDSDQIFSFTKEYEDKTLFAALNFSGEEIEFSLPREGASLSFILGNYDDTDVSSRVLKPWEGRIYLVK

Row | Compound | IC50 (α-glucosidase) | IC50 (human sPLA2 hG-IIA) | IC50 sPLA2(IIA) (human sPLA2 hG-IIA) | type of inhibition of PON1 [1]
1 | Cc1ccc(S(=O)(=O)NNc2nc3ccccc3nc2Cl)cc1 [Compound 5b, N’-(3-chloroquinoxalin-2-yl)-4-methylbenzenesulfonohydrazide] | 2790 ± 500 nM | 1520 ± 212 nM | – | –
2 | O=S(=O)(NNc1nc2ccccc2nc1Cl)c1ccc(C(F)(F)F)cc1 [Compound 5c, N’-(3-chloroquinoxalin-2-yl)-4-(trifluoromethyl) benzenesulfonohydrazide] | 29400 ± 532 nM | 2590 ± 292 nM | – | –
3 | O=S(=O)(NNc1nc2ccccc2nc1Cl)c1ccc(Br)cc1 [Compound 5d, 4-Bromo-N’-(3-chloroquinoxalin-2-yl)benzenesulfonohydrazide] | 13300 ± 263 nM | 2120 ± 132 nM | – | –
4 | O=S(=O)(NNc1nc2ccccc2nc1NNS(=O)(=O)c1ccccc1)c1ccccc1 [Compound 6a, N’,N’’’-(quinoxaline-2,3-diyl)dibenzenesulfonohydrazide] | 3150 ± 32 nM | 47.5 ± 0.8 nM | – | –
5 | Cc1ccc(S(=O)(=O)NNc2nc3ccccc3nc2NNS(=O)(=O)c2ccc(C)cc2)cc1 [Compound 6b, N’,N’’’-(quinoxaline-2,3-diyl)bis(4-methylbenzenesulfonohydrazide)] | 960 ± 112 nM | 76.5 ± 1.7 nM | – | –
6 | O=S(=O)(NNc1nc2ccccc2nc1NNS(=O)(=O)c1ccc(C(F)(F)F)cc1)c1ccc(C(F)(F)F)cc1 [Compound 6c, N’,N’’’-(quinoxaline-2,3-diyl)bis(4-trifluoromethylbenzenesulfonohydrazide)] | 95.3 ± 5.4 nM | 2240 ± 1050 nM | – | –
7 | O=S(=O)(NNc1nc2ccccc2nc1NNS(=O)(=O)c1ccc(Br)cc1)c1ccc(Br)cc1 [Compound 6d, N’,N’’’-(quinoxaline-2,3-diyl)bis(4-bromobenzenesulfonohydrazide)] | 8290 ± 367 nM | 4930 ± 241 nM | high micromolar | –
8 | COc1ccc(OC)c(C(O)CNC(=O)CN)c1 (stereo not shown) [Midodrine] | – | – | – | competitive inhibition
9 | CC(C)NCC(O)COc1ccc(CC(N)=O)cc1 (stereo not shown) [atenolol] | – | – | – | non-competitive inhibition
10 | CC(C)(C)NCC(O)COc1cccc2c1CC(O)C(O)C2 (stereo not shown) [nadolol] | – | – | – | competitive inhibition
11 | CC(C)NCC(O)COc1cccc2[nH]ccc12 (stereo not shown) [pindolol] | – | – | – | non-competitive inhibition
